Data: patent US20240000812A1, “PHARMACOLOGICAL AGENTS FOR TREATING CONDITIONS OF THE EYE” (PLEX PHARMACEUTICALS, INC., priority 2020, published 2024)
Counter-ions that a name gives are not always drawn.

Tests used:
COMT = settings: known COMT inhibitors, cited from earlier work
[1] = tested on: experimental myopia in chickens; settings: intravitreal administration; cited from earlier work
[2] = tested on: experimental myopia in guinea pigs; settings: systemic administration; cited from earlier work
[3] = tested on: chicks with form deprivation myopia; experiment: Form deprivation myopia chick model, scleral proteoglycan synthesis (35SO4 incorporation into glycosaminoglycans); type: in vivo; settings: high (2.25 mM) and low (0.75 mM) dose, 20 ul intravitreal daily for seven days; measured four hours after the final dose
Procedure: Three compounds (quinpirole, CAP4719, and L-DOPA) were tested in chicks for their effects on scleral proteoglycan synthesis, as a measure of scleral growth, axial elongation and myopia. CAP4719 has the following structure: […]
Form deprivation myopia is induced in the right eyes of 4-5 days old chicks by the application of translucent occluders. […] At the end of the treatment period, chicks are sacrificed, their sclera labelled in organ culture with 35SO4, and scleral proteoglycan synthesis measured by CPC-precipitation of newly synthesized glycosaminoglycans. Radioactivity is measured using scintillation counting, and the amount of radioactivity compared (as CPM) between right and left eyes of all groups of animals by paired t-tests and between different groups using ANOVA. […]
The right eyes were goggled (myopic) and injected with either the high dose, low dose, or vehicle of the CAP4719 compound. Proteoglycan synthesis was measured as the amount of 35SO4 (cpm) incorporated into glycosaminoglycans four hours after the final dose. […]

bovine lens extracts = experiment: UVC/H2O2-induced aggregation of bovine lens extracts; type: biochemical; settings: 7 minutes exposure
Text: FIG. 2 represents data relating to UVC/H2O2-induced aggregation of bovine lens extracts, as described in Example 4.

[4] = tested on: experimental myopia in rabbits; settings: intravitreal administration of exogenous dopamine; cited from earlier work

Compound: O=C(NCCCNC(=O)c1ccc(O)c(O)c1)c1ccc(O)c(O)c1 [Bifunctional inhibitor, N,N′-(propane-1,3-diyl)bis(3,4-dihydroxybenzamide)]
- IC50 (COMT; read-out: IC50 (concentration of the inhibitor that affords a 50% inhibition in the activity of the enzyme, COMT)): 300 nM

Compound: Cc1c(Cl)c(C)[n+]([O-])c(Cl)c1-c1noc(-c2cc(O)c(O)c([N+](=O)[O-])c2)n1 [Opicapone]
- Ki (COMT): 1 nM

Compound: O=C(CCN1CCN(c2cccc(C(F)(F)F)c2)CC1)c1cc(O)c(O)c([N+](=O)[O-])c1 [BIA 3-335, 1-(3,4-Dihydroxy-5-nitrophenyl)-3-{4-[3-(trifluoromethyl)phenyl]-1-piperazinyl}-1-propanone dihydrochloride]
- Ki (COMT): 6 nM

Compound: N[C@@H](Cc1ccc(O)c(O)c1)C(=O)O [L-Dopa]
- Development of experimental myopia [1]: inhibit the development of experimental myopia
- Development of experimental myopia [2]: inhibit the development of experimental myopia

Compound: Cc1ccc(C(=O)c2cc(OC(=O)CCCP(=O)([O-])[O-])c(O)c([N+](=O)[O-])c2)cc1.[Na+].[Na+] [CAP4719]
- Block of the increase in proteoglycan synthesis in the goggled (myopic) right eye [3]: did not completely block the increase in proteoglycan synthesis
- Percentage increase in proteoglycan synthesis over the left (control) eye, compared with the vehicle [3]: appears to be lower

Compound: Cc1ccc(C(=O)c2cc(O)c(O)c([N+](=O)[O-])c2)cc1 [CAP1160]
- Prevention of UVC/H2O2-induced aggregation of bovine lens extracts (bovine lens extracts): prevents UVC/H2O2-induced aggregation of bovine lens extracts

Compound: NCCc1ccc(O)c(O)c1 [dopamine]
- Development of experimental myopia [4]: inhibit the development of experimental myopia
